Earlier results in patent US20050181032A1, “Metastable pharmaceutical compositions” (Acrux DDS Pty Ltd., priority 2002, published 2005).

For `C#C[C@]1(O)CC[C@H]2[C@@H]3CCc4cc(O)ccc4[C@H]3CC[C@@]21C` [EE2, Ethinyl Estradiol], the LogP is given as 3.91.
